# US20250100994A1, “CDK12/13 COVALENT INHIBITORS OR PHARMACEUTICAL COMPOSITION THEREOF, AND USES THEREOF” (The Regents of the University of Michigan, priority 2023, published 2025)
# Experiments:
# VCaP cell = VCaP cell proliferation, CellTiter-Glo Luminescent Cell Viability Assay; assay type: cell-based; settings: Homo sapiens, VCaP cells
# Method: The VCaP cell proliferation activity was determined by CellTiter-Glo Luminescent Cell Viability Assay (Promega, Madison, WI). The cells were inoculated on a 96-well plate in their respective culture mediums, and incubated in an incubator with 5% CO2 at 37° C. After incubation overnight, serial dilutions of the compound were prepared, and added into the 96-well plate. A CellTiter-Glo reagent (volume equal to the volume of the cell culture medium present in each well) was added (e.g., 100 μL of the reagent was added into 100 μL of the cell culture medium in the 96-well plate). The contents were mixed on an orbital shaker for 2 min to induce the cell lysis. The cells in the 96-well plate were incubated at room temperature for 10 min, to stabilize the luminescent signal. Luminescence was recorded: the luminescent signal for each well was acquired using an Infinite M1000 Pro plate reader (Tecan, Zurich, Switzerland), and the data was analyzed using GraphPad Prism software (GraphPad Software Inc, La Jolla, CA).
# CDK12 = CDK12 (Homo sapiens (Human), UniProt Q9NYV4); assay: LANCE Ultra kinase assay, CDK12; assay type: biochemical; settings: 30 nM enzyme, 60 min pre-incubation, ULight-4E-BP1 150 nM; read-out: CDK12 IC50
# Chain of CDK12 (Q9NYV4 whole entry): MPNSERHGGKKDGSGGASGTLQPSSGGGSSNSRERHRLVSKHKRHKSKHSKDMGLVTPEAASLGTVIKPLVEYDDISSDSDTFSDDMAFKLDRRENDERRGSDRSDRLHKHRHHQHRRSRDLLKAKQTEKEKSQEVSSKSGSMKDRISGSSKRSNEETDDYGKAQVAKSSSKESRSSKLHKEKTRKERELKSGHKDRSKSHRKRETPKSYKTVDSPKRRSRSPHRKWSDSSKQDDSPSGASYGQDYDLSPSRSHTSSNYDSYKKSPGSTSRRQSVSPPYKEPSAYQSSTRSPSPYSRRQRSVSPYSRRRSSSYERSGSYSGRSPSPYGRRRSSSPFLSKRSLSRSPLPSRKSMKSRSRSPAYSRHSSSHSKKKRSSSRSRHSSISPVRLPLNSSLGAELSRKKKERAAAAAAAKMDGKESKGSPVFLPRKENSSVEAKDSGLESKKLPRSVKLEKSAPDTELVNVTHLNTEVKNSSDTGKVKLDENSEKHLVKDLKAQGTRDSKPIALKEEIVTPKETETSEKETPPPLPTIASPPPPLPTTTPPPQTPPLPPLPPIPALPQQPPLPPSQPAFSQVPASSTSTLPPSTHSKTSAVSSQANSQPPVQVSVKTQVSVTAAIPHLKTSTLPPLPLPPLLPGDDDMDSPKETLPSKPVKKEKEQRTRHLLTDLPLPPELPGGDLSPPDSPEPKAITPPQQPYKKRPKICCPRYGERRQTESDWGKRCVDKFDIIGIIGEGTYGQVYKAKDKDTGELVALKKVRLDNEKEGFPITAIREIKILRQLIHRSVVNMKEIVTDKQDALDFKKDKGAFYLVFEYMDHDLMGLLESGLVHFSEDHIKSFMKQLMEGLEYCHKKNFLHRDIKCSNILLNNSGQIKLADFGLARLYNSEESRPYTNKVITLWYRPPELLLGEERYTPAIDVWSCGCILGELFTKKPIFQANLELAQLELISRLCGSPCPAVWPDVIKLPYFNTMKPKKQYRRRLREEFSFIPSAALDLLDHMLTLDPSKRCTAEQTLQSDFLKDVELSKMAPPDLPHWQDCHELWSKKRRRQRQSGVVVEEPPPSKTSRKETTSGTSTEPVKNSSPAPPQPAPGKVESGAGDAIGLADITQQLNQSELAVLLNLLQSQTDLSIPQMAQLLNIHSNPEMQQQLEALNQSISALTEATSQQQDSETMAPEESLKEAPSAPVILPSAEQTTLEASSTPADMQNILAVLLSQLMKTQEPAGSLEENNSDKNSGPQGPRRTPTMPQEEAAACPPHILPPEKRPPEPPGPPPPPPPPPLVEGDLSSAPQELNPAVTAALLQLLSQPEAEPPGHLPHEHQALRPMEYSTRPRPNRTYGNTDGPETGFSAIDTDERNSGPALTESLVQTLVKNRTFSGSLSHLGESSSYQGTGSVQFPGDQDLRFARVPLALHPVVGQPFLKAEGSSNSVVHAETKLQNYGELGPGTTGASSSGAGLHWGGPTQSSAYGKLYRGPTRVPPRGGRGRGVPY
# Chain of CDK12 (O75909 whole entry partner): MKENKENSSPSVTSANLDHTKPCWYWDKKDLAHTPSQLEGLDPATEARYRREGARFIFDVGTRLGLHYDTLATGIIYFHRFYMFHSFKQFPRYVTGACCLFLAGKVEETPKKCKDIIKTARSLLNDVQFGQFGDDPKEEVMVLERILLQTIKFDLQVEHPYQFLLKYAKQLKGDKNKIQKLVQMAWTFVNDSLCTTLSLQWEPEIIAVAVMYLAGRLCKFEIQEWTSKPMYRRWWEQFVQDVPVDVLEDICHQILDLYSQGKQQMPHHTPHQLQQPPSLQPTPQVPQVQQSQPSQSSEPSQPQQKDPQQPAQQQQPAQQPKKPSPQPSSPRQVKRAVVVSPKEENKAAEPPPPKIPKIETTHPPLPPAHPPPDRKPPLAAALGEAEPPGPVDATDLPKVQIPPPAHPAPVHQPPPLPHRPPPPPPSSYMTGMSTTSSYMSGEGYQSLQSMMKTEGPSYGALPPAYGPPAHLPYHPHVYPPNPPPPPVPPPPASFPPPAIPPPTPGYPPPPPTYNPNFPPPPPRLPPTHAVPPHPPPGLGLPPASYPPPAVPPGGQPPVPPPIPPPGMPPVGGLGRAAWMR
# Method: (§1) The inhibitory activities of the test compound on the kinases were evaluated by LANCE Ultra assay, which was used for detecting ATP-dependent phosphorylation of a ULight-4E-BP1 (Thr37/Thr46) substrate peptide (150 nM). In short, enzymatic reactions were performed in a reaction buffer (25 mM HEPES (pH 7.5), 10 mM MgCl2, 0.01% BSA, 0.01% Tween 20, and 1 mM DTT). The assay was performed in a 384-well plate (6 μL). A final concentration of an ATP substrate was […], and a final concentration of the ULight-4E-BP1 (Thr37/Thr46) substrate peptide was 150 nM. A final concentration of CDK9, CDK12, or CDK13 was 0.3, 30, or 30 nM, respectively. Pre-incubation of the compound and the enzyme was performed at room temperature for 60 min. The reaction was stopped by adding 10 mM EDTA and 0.15 nM Eu-labeled anti-phospho-eIF4E-binding protein 1 (Thr37/46) antibody in LANCE detection buffer after incubation at room temperature for 15, 60, or 90 min. Time-resolved fluorescence (excitation, 320 nm; emission donor, 615 nm; emission acceptor, 665 nm) was monitored using an EnVision spectrophotometer (PerkinElmer). Readings were computed as (acceptor count/donor count)×1000. IC50 values were derived by fitting a sigmoidal dose-response curve to a plot of assay readouts of inhibitor concentrations. All fittings were computed using program Prism 5.03 (GraphPad Software, San Diego, CA).
# CDK13 = CDK13 (Homo sapiens (Human), UniProt Q14004); assay: LANCE Ultra kinase assay, CDK13; assay type: biochemical; settings: 30 nM enzyme, 60 min pre-incubation, ULight-4E-BP1 150 nM; read-out: CDK13 IC50
# Chain of CDK13 (Q14004 whole entry, looked up): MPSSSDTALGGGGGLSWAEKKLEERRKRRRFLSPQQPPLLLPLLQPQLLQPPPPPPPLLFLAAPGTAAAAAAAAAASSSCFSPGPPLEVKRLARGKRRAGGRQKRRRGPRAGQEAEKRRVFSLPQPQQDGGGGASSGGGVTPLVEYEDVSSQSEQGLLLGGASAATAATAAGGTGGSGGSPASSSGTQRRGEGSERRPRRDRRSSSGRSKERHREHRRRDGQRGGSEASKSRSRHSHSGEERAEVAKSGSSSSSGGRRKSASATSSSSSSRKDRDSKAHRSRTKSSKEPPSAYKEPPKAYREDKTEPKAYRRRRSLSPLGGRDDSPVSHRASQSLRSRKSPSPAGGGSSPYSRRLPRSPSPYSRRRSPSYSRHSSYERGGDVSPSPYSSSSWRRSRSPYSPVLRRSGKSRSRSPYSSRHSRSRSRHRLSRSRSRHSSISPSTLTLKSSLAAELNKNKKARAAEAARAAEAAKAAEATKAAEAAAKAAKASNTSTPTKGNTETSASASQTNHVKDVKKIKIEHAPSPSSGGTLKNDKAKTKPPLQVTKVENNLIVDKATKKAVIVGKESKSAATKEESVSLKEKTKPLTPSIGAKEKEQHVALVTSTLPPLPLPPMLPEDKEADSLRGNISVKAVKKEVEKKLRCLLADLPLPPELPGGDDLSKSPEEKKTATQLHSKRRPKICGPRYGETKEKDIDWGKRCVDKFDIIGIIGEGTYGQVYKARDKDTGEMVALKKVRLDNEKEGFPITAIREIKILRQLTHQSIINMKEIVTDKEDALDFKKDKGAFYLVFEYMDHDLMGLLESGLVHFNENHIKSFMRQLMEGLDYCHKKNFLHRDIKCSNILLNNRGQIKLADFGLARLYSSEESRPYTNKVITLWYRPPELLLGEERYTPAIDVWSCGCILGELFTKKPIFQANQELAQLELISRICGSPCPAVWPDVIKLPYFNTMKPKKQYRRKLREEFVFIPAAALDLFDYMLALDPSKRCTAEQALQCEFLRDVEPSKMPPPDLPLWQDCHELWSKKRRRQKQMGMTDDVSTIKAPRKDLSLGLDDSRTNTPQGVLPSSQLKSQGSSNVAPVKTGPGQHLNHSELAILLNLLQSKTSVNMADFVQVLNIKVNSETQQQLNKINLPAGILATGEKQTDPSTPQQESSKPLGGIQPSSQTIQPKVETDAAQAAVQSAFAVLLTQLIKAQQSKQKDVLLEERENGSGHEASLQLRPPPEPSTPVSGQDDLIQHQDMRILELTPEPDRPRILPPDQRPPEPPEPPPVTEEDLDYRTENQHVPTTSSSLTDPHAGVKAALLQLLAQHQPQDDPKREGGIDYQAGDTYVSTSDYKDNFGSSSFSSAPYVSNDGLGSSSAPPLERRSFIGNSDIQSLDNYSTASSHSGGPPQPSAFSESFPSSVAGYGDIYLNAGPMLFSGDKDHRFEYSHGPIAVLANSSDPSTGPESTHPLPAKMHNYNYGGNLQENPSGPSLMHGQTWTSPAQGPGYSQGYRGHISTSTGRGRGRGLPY
# Chain of CDK13 (O75909 whole entry partner, looked up): as the sequence (O75909 whole entry partner) above
# Method: as §1
SMILES,IC50 (VCaP cell),IC50 (CDK12),IC50 (CDK13)
CN(C)C/C=C/C(=O)Nc1cc(N(C(=O)NCc2ccccc2)[C@H]2CC[C@H](Nc3ccc(C#N)cn3)CC2)ccc1-c1ccc(=O)n(C)c1 [YJZ5078],50 to 500 nM,,
"C=CC(=O)Nc1cc(N(C(=O)NCc2ccccc2)[C@H]2CC[C@H](Nc3ccc(C#N)cn3)CC2)ccc1N1CCN(C)CC1 [YJZ5114, N-(5-(3-benzyl-1-((1r,4r)-4-((5-cyanopyridin-2-yl)amino)cyclohexyl)ureido)-2-(4-methylpiperazin-1-yl)phenyl)acrylamide]",,50 to 500 nM,50 to 500 nM
"C=CC(=O)Nc1cc(N(C(=O)NCc2ccccc2)[C@H]2CC[C@H](Nc3ccc(C#N)cn3)CC2)ccc1Br [YJZ6048, N-(5-(3-benzyl-1-((1r,4r)-4-((5-cyanopyridin-2-yl)amino)cyclohexyl)ureido)-2-bromophenyl)acrylamide]",,15 to 50 nM,< 15 nM
"C=CC(=O)Nc1cc(N(C(C)=O)[C@H]2CC[C@H](Nc3ccc(C#N)cn3)CC2)ccc1N1CCC(N(C)C)CC1 [YJZ6115, N-(5-(N-((1r,4r)-4-((5-cyanopyridin-2-yl)amino)cyclohexyl)acetamido)-2-(4-(dimethylamino)piperidin-1-yl)phenyl)acrylamide]",> 500 nM,,
"C=CC(=O)Nc1cc(N([C@H]2CC[C@H](Nc3ccc(C#N)cn3)CC2)S(C)(=O)=O)ccc1N1CCC(N(C)C)CC1 [YJZ6131, N-(5-(N-((1r,4r)-4-((5-cyanopyridin-2-yl)amino)cyclohexyl)methylsulfonamido)-2-(4-(dimethylamino)piperidin-1-yl)phenyl)acrylamide]",> 500 nM,,
"C=CC(=O)Nc1cc(N([C@H]2CC[C@H](Nc3ccc(C#N)cn3)CC2)S(=O)(=O)Cc2ccccc2)ccc1N1CCC(N(C)C)CC1 [YJZ6136, N-(5-((N-((1r,4r)-4-((5-cyanopyridin-2-yl)amino)cyclohexyl)-1-phenylmethyl)sulfonamido)-2-(4-(dimethylamino)piperidin-1-yl)phenyl)acrylamide]",50 to 500 nM,,
C=CC(=O)Nc1cc(N(C(=O)NCc2ccccc2)[C@H]2CC[C@H](Nc3ncc(C#N)cn3)CC2)ccc1N1CCN(C)[C@@H](C)C1 [YJZ7007],15 to 50 nM,,
"C=CC(=O)Nc1cc(Br)cc(N(C(=O)NCc2ccccc2)[C@H]2CC[C@H](Nc3ccc(C#N)cn3)CC2)c1 [YJZ8053, N-(3-(3-benzyl-1-((1r,4r)-4-((5-cyanopyridin-2-yl)amino)cyclohexyl)ureido)-5-bromophenyl)acrylamide]",50 to 500 nM,,
"C=CC(=O)Nc1cc(OC)cc(N(C(=O)NCc2ccccc2)[C@H]2CC[C@H](Nc3ccc(C#N)cn3)CC2)c1 [YJZ8058, N-(3-(3-benzyl-1-((1r,4r)-4-((5-cyanopyridin-2-yl)amino)cyclohexyl)ureido)-5-methoxyphenyl)acrylamide]",50 to 500 nM,,
C=CC(=O)Nc1cc(N2CCN(C)[C@@H](C)C2)cc(N(C(=O)NCc2ccccc2)[C@H]2CC[C@H](Nc3ccc(C#N)cn3)CC2)c1 [YJZ8062],15 to 50 nM,,
"C=CC(=O)Nc1cc(N(C(=O)C(=O)NC2CC2)[C@H]2CC[C@H](Nc3ccc(C#N)cn3)CC2)ccc1N1CCN(C)[C@@H](C)C1 [YJZ8095, N1-(3-acrylamido-4-((S)-3,4-dimethylpiperazin-1-yl)phenyl)-N1-((1r,4S)-4-((5-cyanopyridin-2-yl)amino)cyclohexyl)-N2-cyclopropyloxalamide]",15 to 50 nM,,
"C=CC(=O)Nc1cc(N(C(=O)C(=O)NCC2CC2)[C@H]2CC[C@H](Nc3ccc(C#N)cn3)CC2)ccc1N1CCN(C)[C@@H](C)C1 [YJZ8103, N1-(3-acrylamido-4-((S)-3,4-dimethylpiperazin-1-yl)phenyl)-N1-((1r,4S)-4-((5-cyanopyridin-2-yl)amino)cyclohexyl)-N2-(cyclopropylmethyl)oxalamide]",15 to 50 nM,,
"C=CC(=O)Nc1cc(N(C(=O)N[C@@H](C)c2ccccc2)[C@H]2CC[C@H](Nc3ccc(C#N)cn3)CC2)ccc1N1CCN(C)[C@@H](C)C1 [YJZ9170, N-(5-(1-((1r,4S)-4-((5-cyanopyridin-2-yl)amino)cyclohexyl)-3-((S)-1-phenylethyl)ureido)-2-((S)-3,4-dimethylpiperazin-1-yl)phenyl)acrylamide]",,15 to 50 nM,15 to 50 nM
"C=CC(=O)Nc1cc(N(C(=O)NC2CC2)[C@H]2CC[C@H](Nc3ccc(C#N)cn3)CC2)ccc1N1CCN(C)[C@@H](C)C1 [YJZ9173, N-(5-(1-((1r,4S)-4-((5-cyanopyridin-2-yl)amino)cyclohexyl)-3-cyclopropylureido)-2-((S)-3,4-dimethylpiperazin-1-yl)phenyl)acrylamide]",,50 to 500 nM,50 to 500 nM
"C=CC(=O)Nc1cc(N(C(=O)N[C@H](C)c2ccccc2)[C@H]2CC[C@H](Nc3ccc(C#N)cn3)CC2)ccc1N1CCN(C)[C@@H](C)C1 [YJZ9176, N-(5-(1-((1r,4R)-4-((5-cyanopyridin-2-yl)amino)cyclohexyl)-3-((R)-1-phenylethyl)ureido)-2-((S)-3,4-dimethylpiperazin-1-yl)phenyl)acrylamide]",,> 500 nM,50 to 500 nM

# Further lines, results first:
IC50 (VCaP cell),IC50 (CDK12),IC50 (CDK13),SMILES
15 to 50 nM,,,"C=CC(=O)Nc1cc(N(C(=O)C(=O)NCc2cccc(F)c2)[C@H]2CC[C@H](Nc3ccc(C#N)cn3)CC2)ccc1N1CCN(C)[C@@H](C)C1 [YJZ8087, N1-(3-acrylamido-4-((S)-3,4-dimethylpiperazin-1-yl)phenyl)-N1-((1r,4S)-4-((5-cyanopyridin-2-yl)amino)cyclohexyl)-N2-(3-fluorobenzyl)oxalamide]"
15 to 50 nM,,,"C=CC(=O)Nc1cc(N(C(=O)C(=O)NCc2ccc(F)cc2)[C@H]2CC[C@H](Nc3ccc(C#N)cn3)CC2)ccc1N1CCN(C)[C@@H](C)C1 [YJZ8093, N1-(3-acrylamido-4-((S)-3,4-dimethylpiperazin-1-yl)phenyl)-N1-((1r,4S)-4-((5-cyanopyridin-2-yl)amino)cyclohexyl)-N2-(4-fluorobenzyl)oxalamide]"
< 15 nM,,,"C=CC(=O)Nc1cc(N(C(=O)C(=O)NCc2ccc(F)c(F)c2)[C@H]2CC[C@H](Nc3ccc(C#N)cn3)CC2)ccc1N1CCN(C)[C@@H](C)C1 [YJZ8101, N1-(3-acrylamido-4-((S)-3,4-dimethylpiperazin-1-yl)phenyl)-N1-((1r,4S)-4-((5-cyanopyridin-2-yl)amino)cyclohexyl)-N2-(3,4-difluorobenzyl)oxalamide]"
15 to 50 nM,,,"C=CC(=O)Nc1cc(N(C(=O)C(=O)NCc2cc(F)cc(F)c2)[C@H]2CC[C@H](Nc3ccc(C#N)cn3)CC2)ccc1N1CCN(C)[C@@H](C)C1 [YJZ8102, N1-(3-acrylamido-4-((S)-3,4-dimethylpiperazin-1-yl)phenyl)-N1-((1r,4S)-4-((5-cyanopyridin-2-yl)amino)cyclohexyl)-N2-(3,5-difluorobenzyl)oxalamide]"
,15 to 50 nM,15 to 50 nM,"C=CC(=O)Nc1cc(N(C(=O)NCc2ccc(F)cc2)[C@H]2CC[C@H](Nc3ccc(C#N)cn3)CC2)ccc1N1CCN(C)[C@@H](C)C1 [YJZ9166, N-(5-(1-((1r,4S)-4-((5-cyanopyridin-2-yl)amino)cyclohexyl)-3-(4-fluorobenzyl)ureido)-2-((S)-3,4-dimethylpiperazin-1-yl)phenyl)acrylamide]"
,< 15 nM,15 to 50 nM,"C=CC(=O)Nc1cc(N(C(=O)NCc2ccccc2)[C@H]2CC[C@H](Nc3ccc(C#N)cn3)CC2)cnc1N1CCN(C)[C@@H](C)C1 [YJZ9171, N-(5-(3-benzyl-1-((1r,4S)-4-((5-cyanopyridin-2-yl)amino)cyclohexyl)ureido)-2-((S)-3,4-dimethylpiperazin-1-yl)pyridin-3-yl)acrylamide]"
,15 to 50 nM,< 15 nM,"C=CC(=O)Nc1cc(N(C(=O)NCc2cccc(F)c2)[C@H]2CC[C@H](Nc3ccc(C#N)cn3)CC2)ccc1N1CCN(C)[C@@H](C)C1 [YJZ9177, N-(5-(1-((1r,4S)-4-((5-cyanopyridin-2-yl)amino)cyclohexyl)-3-(3-fluorobenzyl)ureido)-2-((S)-3,4-dimethylpiperazin-1-yl)phenyl)acrylamide]"
,15 to 50 nM,< 15 nM,"C=CC(=O)Nc1cc(N(C(=O)NCc2ccccc2F)[C@H]2CC[C@H](Nc3ccc(C#N)cn3)CC2)ccc1N1CCN(C)[C@@H](C)C1 [YJZ9179, N-(5-(1-((1r,4S)-4-((5-cyanopyridin-2-yl)amino)cyclohexyl)-3-(2-fluorobenzyl)ureido)-2-((S)-3,4-dimethylpiperazin-1-yl)phenyl)acrylamide]"
